The values that follow come from article PMC6825221, “In silico re-engineering of a neurotransmitter to activate KCNQ potassium channels in an isoform-specific manner” (Communications Biology, 2019).

pEC50: −log10 of the molar value. “Also recorded” adds a separate entry of the source.

In general, pEC50 refers to the negative decadic logarithm of the EC50, by convention in mol/L.

Experiment [1] addresses T1, KCNQ2 (Homo sapiens, UniProt O43526). Also noted: method as in PMID 30021858. As to conditions: cited from earlier work.
Experiment [2] concerns the target T2, KCNQ3* (Homo sapiens, UniProt O43525, A315T). Also noted: method as in PMID 29748663. To be noted: cited from earlier work.
Experiment [3] has as its target T3, KCNQ5 (Homo sapiens, UniProt Q9NR82). Also noted: method as in PMID 29748663. To be noted: cited from earlier work.
The target of experiment [4] is T4, KCNQ2/3 (Homo sapiens, UniProt O43525+O43526). The experiment is described as follows: TEVC of KCNQ2/3 channels expressed in Xenopus oocytes. The experiment is classed as cell-based. As to conditions: TEVC in oocytes. From the text:
(§1) We generated cRNA transcripts encoding human KCNQ1, KCNQ2, KCNQ3, KCNQ4, KCNQ5 or GLRA1 (NM_001146040) (GenScript, Piscataway, NJ, USA) by in vitro transcription using the T7 polymerase mMessage mMachine kit (Thermo Fisher Scientific), after vector linearization, from cDNA sub-cloned into plasmids incorporating Xenopus laevis β-globin 5′ and 3′ UTRs flanking the coding region to enhance translation and cRNA stability. We quantified cRNA by spectrophotometry. […] We injected defolliculated stage V and VI Xenopus laevis oocytes (Ecocyte Bioscience, Austin, TX and Xenoocyte, Dexter, MI) with KCNQ channel α subunit (5-20 ng) or GLRA1 (20 ng) cRNAs. We incubated the oocytes at 16 °C in Barth’s saline solution (Ecocyte Bioscience) containing penicillin and streptomycin, with daily washing, for 2–5 days prior to two-electrode voltage-clamp (TEVC) recording.
(§2) For recording, oocytes were placed in a small-volume oocyte bath (Warner) and viewed them with a dissection microscope. Chemicals were sourced from Sigma, Matrix Scientific and Santa Cruz. […] All stock solutions were diluted in bath solution on the day of experiments. KCNQ2/3 channel activation was screened for using either 30 µM or 100 µM concentrations of each of the six compounds, then dose responses were conducted as appropriate. Bath solution was (in mM): 96 NaCl, 4 KCl, 1 MgCl2, 1 CaCl2, 10 HEPES (pH 7.6). Compounds were introduced into the oocyte recording bath by gravity perfusion at a constant flow of 1 ml per minute for 3 min prior to recording. Pipettes were of 1–2 MΩ resistance when filled with 3 M KCl. Currents were recorded in response to voltage pulses between −120 or −80 mV and + 40 mV at 20 mV intervals from a holding potential of −80 mV, to yield current-voltage relationships, current magnitude, and for quantifying activation rate. We analyzed data using Clampfit (Molecular Devices) and Graphpad Prism software (GraphPad, San Diego, CA, USA); values are stated as mean ± SEM. We plotted raw or normalized tail currents versus prepulse voltage and fitted with a single Boltzmann function:1 g=(A1−A2)/1+exp(V12−V)∕VS+A2, where g is the normalized tail conductance, A1 is the initial value at −∞, A2 is the final value at +∞, V1/2 is the half-maximal voltage of activation and Vs the slope factor. Activation, deactivation, wash-in and washout kinetics were fitted with single exponential functions to yield a τ value.

In experiment [5] the target is T1, KCNQ2. In words: TEVC of homomeric KCNQ2 expressed in Xenopus oocytes. As to conditions: dose response. The experiment is classed as cell-based.
From the text: as §1, §2

Experiment [6] concerns the target T2, KCNQ3*. In words: TEVC of homomeric KCNQ3* (A315T KCNQ3 mutant) expressed in Xenopus oocytes. The experiment is classed as cell-based. To be noted: dose response.
From the text: We next validated the in silico predictions using two-electrode voltage clamp of homomeric neuronal KCNQ2-5 channel isoforms expressed in Xenopus laevis oocytes. […] As in previous studies[8],[10], we used the A315T KCNQ3 mutant (KCNQ3*) that ensures large enough currents to accurately quantify voltage dependence and pharmacology of homomeric KCNQ3[16].
(§3) We generated cRNA transcripts encoding human KCNQ1, KCNQ2, KCNQ3, KCNQ4, KCNQ5 or GLRA1 (NM_001146040) (GenScript, Piscataway, NJ, USA) by in vitro transcription using the T7 polymerase mMessage mMachine kit (Thermo Fisher Scientific), after vector linearization, from cDNA sub-cloned into plasmids incorporating Xenopus laevis β-globin 5′ and 3′ UTRs flanking the coding region to enhance translation and cRNA stability. We quantified cRNA by spectrophotometry. We generated mutant KCNQ2 and KCNQ3 cDNAs by site-directed mutagenesis using a QuikChange kit (Stratagene, San Diego, CA) and prepared the corresponding cRNAs as above. We injected defolliculated stage V and VI Xenopus laevis oocytes (Ecocyte Bioscience, Austin, TX and Xenoocyte, Dexter, MI) with KCNQ channel α subunit (5-20 ng) or GLRA1 (20 ng) cRNAs. We incubated the oocytes at 16 °C in Barth’s saline solution (Ecocyte Bioscience) containing penicillin and streptomycin, with daily washing, for 2–5 days prior to two-electrode voltage-clamp (TEVC) recording.
as §2, with “We performed TEVC at room temperature using an OC-725C amplifier (Warner Instruments, Hamden, CT) and pClamp10 software (Molecular Devices, Sunnyvale, CA) 2–5 days after cRNA injection as described in the section above. For” for “For”, “We plotted raw or normalized tail currents versus prepulse voltage and fitted with a single Boltzmann function:1 g=(A1−A2)/1+exp(V12−V)∕VS+A2, where g is the normalized tail conductance, A1 is the initial value at −∞, A2 is the final value at +∞, V1/2 is the half-maximal voltage of activation and Vs the slope factor. Activation, deactivation, wash-in and washout kinetics were fitted with single exponential functions to yield a τ value.” left out

The target of a further experiment is KCNQ4 (Homo sapiens, UniProt P56696). In words: TEVC of homomeric KCNQ4 expressed in Xenopus oocytes. The experiment is classed as cell-based. As to conditions: dose response.
From the text: as §3
as §2, with “We performed TEVC at room temperature using an OC-725C amplifier (Warner Instruments, Hamden, CT) and pClamp10 software (Molecular Devices, Sunnyvale, CA) 2–5 days after cRNA injection as described in the section above. For” for “For”

In experiment [7] the target is T3, KCNQ5. In words: TEVC of homomeric KCNQ5 expressed in Xenopus oocytes. The experiment is classed as cell-based. As to conditions: dose response.
From the text: as §3
We performed TEVC at room temperature using an OC-725C amplifier (Warner Instruments, Hamden, CT) and pClamp10 software (Molecular Devices, Sunnyvale, CA) 2–5 days after cRNA injection as described in the section above. For recording, oocytes were placed in a small-volume oocyte bath (Warner) and viewed them with a dissection microscope. Chemicals were sourced from Sigma, Matrix Scientific and Santa Cruz. […] All stock solutions were diluted in bath solution on the day of experiments. KCNQ2/3 channel activation was screened for using either 30 µM or 100 µM concentrations of each of the six compounds, then dose responses were conducted as appropriate. […] Currents were recorded in response to voltage pulses between −120 or −80 mV and + 40 mV at 20 mV intervals from a holding potential of −80 mV, to yield current-voltage relationships, current magnitude, and for quantifying activation rate. We analyzed data using Clampfit (Molecular Devices) and Graphpad Prism software (GraphPad, San Diego, CA, USA); values are stated as mean ± SEM. […]

A further experiment concerns the target T5, GLRA1 (Homo sapiens, UniProt P23415).
T5 sequence (P23415 29-457): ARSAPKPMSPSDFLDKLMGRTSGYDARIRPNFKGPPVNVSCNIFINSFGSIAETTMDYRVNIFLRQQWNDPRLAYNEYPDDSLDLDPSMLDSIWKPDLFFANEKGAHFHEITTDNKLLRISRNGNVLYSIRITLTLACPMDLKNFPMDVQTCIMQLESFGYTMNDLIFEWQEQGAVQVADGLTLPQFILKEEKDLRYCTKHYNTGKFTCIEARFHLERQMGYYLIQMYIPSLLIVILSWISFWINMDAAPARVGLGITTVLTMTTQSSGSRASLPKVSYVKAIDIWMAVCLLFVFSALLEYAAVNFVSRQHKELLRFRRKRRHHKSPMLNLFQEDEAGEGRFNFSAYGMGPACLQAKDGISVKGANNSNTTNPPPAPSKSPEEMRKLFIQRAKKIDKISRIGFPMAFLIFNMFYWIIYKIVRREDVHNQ
The experiment is described as follows: TEVC of glycine receptor GLRA1 expressed in Xenopus oocytes. As to conditions: 1 mM, compound alone. Type of experiment: cell-based.
From the text: as §3
as §2, with “We performed TEVC at room temperature using an OC-725C amplifier (Warner Instruments, Hamden, CT) and pClamp10 software (Molecular Devices, Sunnyvale, CA) 2–5 days after cRNA injection as described in the section above. For” for “For”

The target of experiment [8] is T4, KCNQ2/3.
Method: Oocytes were then washed four times in 16 °C ND96, transferred to individual wells in a 96 well plate and lysed in 0.2% SDS in ND96. Each oocyte lysate was transferred to a scintillation vial containing 5 ml Cytoscint scintillation cocktail fluid (MP Biomedicals, Santa Ana, CA). Vials were capped, shaken, and then allowed to sit at room temperature for at least 30 min before scintillation counting in a Beckmann Coulter LS6500 liquid scintillation counter.
A further experiment concerns the target T6, KCNQ3*-R242A (Homo sapiens, UniProt O43525, A315T/R242A).
T6 sequence (O43525 1-872 R242A/A315T): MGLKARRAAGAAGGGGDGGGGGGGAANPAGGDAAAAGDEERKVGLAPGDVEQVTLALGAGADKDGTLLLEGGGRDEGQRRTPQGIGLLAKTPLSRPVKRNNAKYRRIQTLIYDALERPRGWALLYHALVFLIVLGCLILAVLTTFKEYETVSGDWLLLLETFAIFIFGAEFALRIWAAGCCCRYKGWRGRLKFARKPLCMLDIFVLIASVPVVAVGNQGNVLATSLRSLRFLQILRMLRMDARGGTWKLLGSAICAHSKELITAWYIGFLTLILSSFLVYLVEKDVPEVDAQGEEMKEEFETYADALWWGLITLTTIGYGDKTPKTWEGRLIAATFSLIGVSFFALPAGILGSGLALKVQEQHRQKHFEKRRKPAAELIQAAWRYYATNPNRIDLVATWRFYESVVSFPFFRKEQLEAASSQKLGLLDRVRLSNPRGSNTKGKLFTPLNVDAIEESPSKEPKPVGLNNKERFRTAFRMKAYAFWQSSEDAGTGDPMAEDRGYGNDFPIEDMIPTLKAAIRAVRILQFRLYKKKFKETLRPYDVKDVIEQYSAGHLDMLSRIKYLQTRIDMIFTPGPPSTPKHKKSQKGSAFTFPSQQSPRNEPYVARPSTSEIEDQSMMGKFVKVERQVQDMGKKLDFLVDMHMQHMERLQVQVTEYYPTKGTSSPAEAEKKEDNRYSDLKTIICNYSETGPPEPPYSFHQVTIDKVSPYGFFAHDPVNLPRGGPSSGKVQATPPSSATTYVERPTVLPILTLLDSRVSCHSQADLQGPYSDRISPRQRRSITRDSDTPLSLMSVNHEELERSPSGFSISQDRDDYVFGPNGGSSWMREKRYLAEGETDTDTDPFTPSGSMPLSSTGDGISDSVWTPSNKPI
In words: TEVC of homomeric KCNQ3*-R242A. The experiment is classed as cell-based. As to conditions: 100 µM. From the text: We generated cRNA transcripts encoding human KCNQ1, KCNQ2, KCNQ3, KCNQ4, KCNQ5 or GLRA1 (NM_001146040) (GenScript, Piscataway, NJ, USA) by in vitro transcription using the T7 polymerase mMessage mMachine kit (Thermo Fisher Scientific), after vector linearization, from cDNA sub-cloned into plasmids incorporating Xenopus laevis β-globin 5′ and 3′ UTRs flanking the coding region to enhance translation and cRNA stability. We quantified cRNA by spectrophotometry. We generated mutant KCNQ2 and KCNQ3 cDNAs by site-directed mutagenesis using a QuikChange kit (Stratagene, San Diego, CA) and prepared the corresponding cRNAs as above. […]
We performed TEVC at room temperature using an OC-725C amplifier (Warner Instruments, Hamden, CT) and pClamp10 software (Molecular Devices, Sunnyvale, CA) 2–5 days after cRNA injection as described in the section above. […] Currents were recorded in response to voltage pulses between −120 or −80 mV and + 40 mV at 20 mV intervals from a holding potential of −80 mV, to yield current-voltage relationships, current magnitude, and for quantifying activation rate. We analyzed data using Clampfit (Molecular Devices) and Graphpad Prism software (GraphPad, San Diego, CA, USA); values are stated as mean ± SEM. […]

Another experiment addresses KCNQ1 (Homo sapiens, UniProt P51787). As to conditions: cited from earlier work.

T4 sequence (O43525 whole entry): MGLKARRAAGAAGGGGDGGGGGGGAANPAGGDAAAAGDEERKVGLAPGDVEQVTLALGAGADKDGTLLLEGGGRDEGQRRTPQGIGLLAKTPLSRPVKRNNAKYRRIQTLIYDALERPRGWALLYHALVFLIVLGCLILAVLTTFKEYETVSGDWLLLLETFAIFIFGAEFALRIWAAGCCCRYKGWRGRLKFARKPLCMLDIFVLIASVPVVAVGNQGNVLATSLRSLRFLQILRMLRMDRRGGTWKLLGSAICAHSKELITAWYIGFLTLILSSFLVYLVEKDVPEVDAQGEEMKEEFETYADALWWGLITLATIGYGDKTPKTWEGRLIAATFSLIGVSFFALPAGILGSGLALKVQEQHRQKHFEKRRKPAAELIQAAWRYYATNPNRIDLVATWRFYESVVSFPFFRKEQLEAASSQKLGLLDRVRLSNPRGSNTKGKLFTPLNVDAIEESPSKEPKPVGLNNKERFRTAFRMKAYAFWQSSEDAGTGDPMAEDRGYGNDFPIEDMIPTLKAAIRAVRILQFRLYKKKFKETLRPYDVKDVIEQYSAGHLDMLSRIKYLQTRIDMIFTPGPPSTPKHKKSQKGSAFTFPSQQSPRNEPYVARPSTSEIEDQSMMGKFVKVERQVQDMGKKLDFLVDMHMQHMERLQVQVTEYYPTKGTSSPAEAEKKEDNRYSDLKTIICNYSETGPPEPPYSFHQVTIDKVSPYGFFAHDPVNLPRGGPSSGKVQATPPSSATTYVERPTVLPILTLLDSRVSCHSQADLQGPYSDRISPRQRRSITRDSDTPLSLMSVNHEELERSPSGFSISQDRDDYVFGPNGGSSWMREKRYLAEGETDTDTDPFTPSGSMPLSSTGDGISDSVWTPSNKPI
T4 sequence (O43526 whole entry): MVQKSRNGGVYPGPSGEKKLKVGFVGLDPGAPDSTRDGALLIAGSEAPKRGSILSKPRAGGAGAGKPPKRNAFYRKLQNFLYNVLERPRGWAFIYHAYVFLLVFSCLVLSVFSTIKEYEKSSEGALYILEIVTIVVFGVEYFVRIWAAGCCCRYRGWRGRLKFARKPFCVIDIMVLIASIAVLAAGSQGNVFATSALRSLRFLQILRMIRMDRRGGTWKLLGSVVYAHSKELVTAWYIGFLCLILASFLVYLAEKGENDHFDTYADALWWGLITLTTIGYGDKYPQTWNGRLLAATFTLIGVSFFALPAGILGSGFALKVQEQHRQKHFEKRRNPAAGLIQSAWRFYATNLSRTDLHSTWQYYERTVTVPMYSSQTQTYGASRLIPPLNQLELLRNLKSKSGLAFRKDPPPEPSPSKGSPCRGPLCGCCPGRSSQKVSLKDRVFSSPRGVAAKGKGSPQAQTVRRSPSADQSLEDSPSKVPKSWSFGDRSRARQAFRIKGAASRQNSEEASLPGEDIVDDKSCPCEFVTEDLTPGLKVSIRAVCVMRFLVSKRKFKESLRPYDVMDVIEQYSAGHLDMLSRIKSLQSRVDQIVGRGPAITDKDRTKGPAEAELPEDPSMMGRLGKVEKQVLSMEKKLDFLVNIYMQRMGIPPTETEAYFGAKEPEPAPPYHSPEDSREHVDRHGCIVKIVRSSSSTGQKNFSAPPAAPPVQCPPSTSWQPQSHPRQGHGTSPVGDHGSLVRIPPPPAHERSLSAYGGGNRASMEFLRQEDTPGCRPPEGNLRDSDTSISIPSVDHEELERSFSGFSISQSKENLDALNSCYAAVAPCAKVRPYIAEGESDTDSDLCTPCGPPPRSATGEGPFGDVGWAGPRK

In the case of `NCC1(CC(=O)O)CCCCC1` [gabapentin], the “activation of KCNQ2” value at KCNQ2 [1] is given as “not KCNQ2”. In addition, the “activation of KCNQ3” value on KCNQ3* [2] is “activate only KCNQ3 and KCNQ5”. Also, the “activation of KCNQ5” value on KCNQ5 [3] is “activate only KCNQ3 and KCNQ5”.
For `NCC(=O)O` [glycine, reference compound], the “activation of KCNQ2/3” value at KCNQ2/3 [4] is reported as “nor does it activate KCNQ2/3; also recorded: no effect”. In addition, on KCNQ2 [5], the “effects on KCNQ2” value is “unable to open”. Moreover, the “effects on KCNQ3*” value at KCNQ3* [6] was “no effects”. For the same compound, the “effects on KCNQ4” value at KCNQ4 is reported as “unable to open”. Further, on KCNQ5 [7], the “effects on KCNQ5” value is “no effects”. The “activation of GLRA1” value at GLRA1 was “robust activation”. Also, on KCNQ2/3 [8] (CPM over 30 min), the “binding of tritiated ligand to wild-type KCNQ2/3” value is on record as “did not”. In addition, at KCNQ2/3 [8] (cold glycine 100 µM), the “inhibition of GABA binding to wild-type KCNQ2/3” value was “did not inhibit GABA binding”.
In the case of `CCOC(=O)Nc1ccc(NCc2ccc(F)cc2)cc1N` [retigabine, reference compound], the negative logarithm of the EC50 (pEC50) on KCNQ2/3 [4] (EC50, KCNQ2/3 activation, shift in voltage dependence of activation (ΔV0.5act)) was 5.16. Moreover, on KCNQ3*-R242A, the “effect on nonfunctional KCNQ3*-R242A” value is reported as “awakened neither by 3FMSG nor retigabine”. The “activation of KCNQ1” value on KCNQ1 was “does not activate KCNQ1”.
